Test results taken from US8097592B2, “Cocrystal of C-glycoside derivative and L-proline” (Astellas Pharma Inc., priority 2006, dated 2012).

Key:
[1] = Storage stability test (X-ray powder diffraction at various humidities and storage conditions); type: physicochemical
Description: (2) Humidity-Controlled Measurement “MAC Science […] 22 with a multifunctional humidity and temperature converter ([…] 235)” equipped with a copper X-ray tube was used under the conditions of a current of 350 mA, a tube voltage of 50 kV, a sampling width of 0.020°, a scanning rate of 3°/min, wavelength of 1.54056 Å, and measurement angles of diffraction range of (2θ): 5 to 40°. [Storage Stability Test] The measurement of X-ray powder diffraction was conducted continuously at 25° C. in a relative humidity range of 2 to 88%.

[2] = Moisture absorptivity test (weight change, VTI SGS-100); type: physicochemical; conditions: for moisture absorption behaviour: interval 5%
Description: [Moisture Absorptivity Test] Weight change was measured by using of “VTI SGS-100” under the conditions of temperature=25° C., relative humidity range=5 to 95%, and relative humidity interval=5%. […] Further, while known compound A gives moisture absorption curves slightly different from each other depending upon the particle size and crystal habit, there was a case that 3.2% of water was desorbed and absorbed at 25° C. at 5 to 95% RH.

KK-A^y mice = assay: Test for confirming effect of antihyperglycemic action (blood sugar AUC 0 to 8 hours); type: in vivo; conditions: non-fasted male KK-A^y mice, oral, 1 mg/10 mL suspension at 10 mL/kg
Description: (Test 2): [Test for Confirming Effect of Antihyperglycemic Action] Non-fasted KK-A^y mice (Clea Japan, Inc., male) were used as a test animal. The cocrystal of the present invention was suspended in an aqueous 0.5% methyl cellulose solution, in a concentration of 1 mg/10 mL. The body weight of each mouse was measured, and the suspension of the cocrystal of the present invention was forcibly administered orally in an amount of 10 mL/kg. Only the aqueous 0.5% methyl cellulose solution was administered to a control group. The number of mice per each group was 6. Blood samples were taken from the tail vein of each mouse right before administration and 1, 2, 4 and 8 hours after administration. Blood sugar value was measured using Glucose CII Test Wako (Wako Pure Chemical Industries, ltd.). From the blood sugar values of the cocrystal of the present invention-administered group at 0 to 8 hours were calculated an area under blood sugar value-time curve (AUC) according to the trapezoidal method; a ratio (%) of that area to the area of control group was determined; and it was taken as intensity of […] action.

[3] = biological target: Human Na^+-Glucose Cotransporter (Human SGLT2) (Homo sapiens, UniProt P31639); assay: cell-based
Description: (Test 1) [Test for Confirming Effect of Inhibiting Activity of Human Na^+-Glucose Cotransporter (Human SGLT2)]
3) Measurement of Inhibition of methyl-α-D-glucopyranoside Intake
After removing the medium of a CHO cell which stably express the human SGLT2, a pretreatment buffer solution (buffer solution of pH 7.4 containing choline chloride (140 mM), potassium chloride (2 mM), calcium chloride (1 mM), magnesium chloride (1 mM), 2-[4-(2-hydroxyethyl)-1-piperazinyl]ethanesulfonic acid (10 mM), and tris(hydroxymethyl)aminomethane (5 mM)) was added in the amount of 100 μl per well, and incubated at 37° C. for 20 minutes.
11 μl of methyl-α-D-(U-14C) glucopyranoside
(manufactured by Amersham Pharmacia Biotech) was added to and mixed with 1,000 μl of a buffer solution for intake containing a cocrystal of the present invention (buffer solution of pH 7.4 containing sodium chloride (140 mM), potassium chloride (2 mM), calcium chloride (1 mM), magnesium chloride (1 mM), methyl-α-D-glucopyranoside (50 μM), 2-[4-(2-hydroxyethyl)-1-piperazinyl]ethanesulfonic acid (10 mM), and tris(hydroxymethyl)aminomethane (5 mM)) to prepare a buffer solution for intake. A buffer solution for intake without a test crystal was prepared for a control group. […]

[4] = 25° C., relative humidity range 5 to 95%

Sequence of Human Na^+-Glucose Cotransporter (Human SGLT2) (P31639 whole entry): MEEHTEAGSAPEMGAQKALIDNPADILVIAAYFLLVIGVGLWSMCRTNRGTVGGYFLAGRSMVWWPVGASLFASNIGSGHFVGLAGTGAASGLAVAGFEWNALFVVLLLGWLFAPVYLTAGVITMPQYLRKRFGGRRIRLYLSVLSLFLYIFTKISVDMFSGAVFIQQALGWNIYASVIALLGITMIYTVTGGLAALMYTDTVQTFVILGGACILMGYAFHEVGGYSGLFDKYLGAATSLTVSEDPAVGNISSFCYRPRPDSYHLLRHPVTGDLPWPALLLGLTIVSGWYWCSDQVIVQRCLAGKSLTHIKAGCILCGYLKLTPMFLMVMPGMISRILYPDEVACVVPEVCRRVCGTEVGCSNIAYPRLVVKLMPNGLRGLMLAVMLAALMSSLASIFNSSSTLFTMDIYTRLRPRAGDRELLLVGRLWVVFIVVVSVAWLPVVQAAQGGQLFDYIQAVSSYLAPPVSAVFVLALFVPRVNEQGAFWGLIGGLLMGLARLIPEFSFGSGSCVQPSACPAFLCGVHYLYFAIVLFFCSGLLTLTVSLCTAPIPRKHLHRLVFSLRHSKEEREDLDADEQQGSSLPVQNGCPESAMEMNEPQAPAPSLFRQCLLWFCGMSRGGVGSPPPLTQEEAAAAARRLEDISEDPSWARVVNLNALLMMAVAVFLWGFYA

| physical change on standing ([1]; up to 7 days at room temperature (25° C.) at 63.5% RH to 84% RH) | physical stability in the moisture absorptivity test [2, 4] | moisture content ([2]; 25° C., total relative humidity range of 5 to 95%) [%] | IC50 [3] [nM] | X-ray powder diffraction change associated with the change of relative humidity ([1]; 25° C., relative humidity range of 2 to 88%, continuous measurement) | physical stability of crystals of free form ([1]; crystals from various crystallization conditions, room temperature and low humidity) | water desorbed and absorbed ([2]; 25° C. at 5 to 95% RH) [%] | weight change ([2]; 25° C., from relative humidity of 25 to 35%) | SMILES | physical stability on standing ([1]; 40° C./75% RH/open) | physical stability on standing ([1]; 60° C./uncontrolled humidity) | physical stability on standing ([1]; 80° C./uncontrolled humidity) | moisture absorption behaviour [2, 4] | intensity of antihyperglycemic action (ratio of blood sugar AUC to control group) (KK-A^y mice) |
| --- | --- | --- | --- | --- | --- | --- | --- | --- | --- | --- | --- | --- | --- |
| no physical change | stable physically | ≤ 0.7 | 5.8 |  |  |  |  | OC[C@H]1O[C@@H](c2ccc(F)c(Cc3cc4ccccc4s3)c2)[C@H](O)[C@@H](O)[C@@H]1O [cocrystal of the present invention, cocrystal of (1S)-1,5-anhydro-1-[3-(1-benzothien-2-ylmethyl)-4-fluorophenyl]-D-glucitol and L-proline] | physically stable for at least two months | physically stable for at least two months | physically stable for at least two months | no moisture absorptivity | strong antihypoglycemic action |
|  |  |  |  | shift of diffraction angle | physically unstable crystals | 3.2 | sharp increase in weight | OC[C@H]1O[C@@H](c2ccc(F)c(Cc3cc4ccccc4s3)c2)[C@H](O)[C@@H](O)[C@@H]1O [known compound A, (1S)-1,5-anhydro-1-[3-(1-benzothien-2-ylmethyl)-4-fluorophenyl]-D-glucitol, reference compound] |  |  |  | non-stoichiometric moisture absorption accompanied by physical change at low humidity |  |
